# Reference: US11660328B2, “GLP-2 analogs and peptibodies for administration before, during or after surgery” (TAKEDA PHARMACEUTICAL COMPANY LIMITED, priority 2017, dated 2023)
# System: small intestine
# Assay: Histology study of villi length and crypt depth (H&E sections, imagescope)
# Assay type: in vivo, female CD-1 mice
# Conditions: after administration vs without treatment, FIGS. 1-3; for villus height: small intestine
# Description: Various doses of GLP-2 peptibody B264 were analyzed to assess the pharmacodynamic plateau, with the primary endpoint a measurement of the small intestinal weight relative to the total body weight and a histology study of the length of villi. 11 groups of six female CD-1 mice each were formed. [table] For histology, four micron paraffin sections were prepared for H&E and Ki67 IHC staining. After whole slide scanning, an imagescope was used to measure villi length and crypt depth, and to analyze Ki67. The antibody against Ki67 is a rabbit antibody sold by Adcam®, catalog number ab 616667. The antibody was used at a working concentration of 1:100 and was detected using a Leica® Refine Kit. […] See, e.g., Example 13 of U.S. Provisional Application No. 62/548,601, filed Aug. 22, 2017 for more data and examples with respect to GLP-2 peptibody B264, GLP-2 peptibody […], and a GLP-2[[…]] peptide.
Molecule,crypt depth in the small intestine,villus height
"CC[C@H](C)[C@H](NC(=O)[C@H](Cc1ccccc1)NC(=O)[C@H](CC(=O)O)NC(=O)[C@H](CCCNC(=N)N)NC(=O)[C@H](C)NC(=O)[C@H](C)NC(=O)[C@H](CC(C)C)NC(=O)[C@H](CC(N)=O)NC(=O)[C@H](CC(=O)O)NC(=O)[C@H](CC(C)C)NC(=O)[C@@H](NC(=O)[C@@H](NC(=O)[C@H](CC(N)=O)NC(=O)[C@H](CCSC)NC(=O)[C@H](CCC(=O)O)NC(=O)[C@H](CC(=O)O)NC(=O)[C@H](CO)NC(=O)[C@H](Cc1ccccc1)NC(=O)[C@H](CO)NC(=O)CNC(=O)[C@H](CC(=O)O)NC(=O)CNC(=O)[C@@H](N)Cc1c[nH]cn1)[C@@H](C)O)[C@@H](C)CC)C(=O)N[C@@H](CC(N)=O)C(=O)N[C@@H](Cc1c[nH]c2ccccc12)C(=O)N[C@@H](CC(C)C)C(=O)N[C@H](C(=O)N[C@@H](CCC(N)=O)C(=O)N[C@H](C(=O)N[C@@H](CCCCN)C(=O)N[C@H](C(=O)N[C@H](C(=O)N[C@@H](CC(=O)O)C(=O)O)[C@@H](C)O)[C@@H](C)CC)[C@@H](C)O)[C@@H](C)CC [h(Gly2)GLP-2, teduglutide, reference compound]",increased crypt depth,increased villus height
GLP-2 peptibody K274: GLP-2 peptibody having the amino acid sequence of SEQ ID NO: 4 (GLP-2[A2G]-linker-IgG1 Fc fusion),increased crypt depth,increased villus height
